Laboratory results from patent US20260317367A1, “SALTS INCLUDING CRYSTALLINE SALTS OF 25-HYDROXY-CHOLEST-5-EN-3-SULFATE AND METHODS FOR PREPARING SAME” (Durect Corporation, priority 2022, published 2026).
Where a name gives a salt, the structure may show the parent alone.

How the values were obtained:
Format in all cases: physicochemical
[1] = Solubility of 25HC3S salts after one day at room temperature (HPLC, as free acid); details: room temperature, one day
Description: These fluids were prepared per the instruction listed by Biorelevant (Biorelevant.com). Each buffer concentrate was diluted with water and mixed well. FaSSIF, FeSSIF, FaSSGF powder was added to each buffer and mixed to completely dissolve the powder. Buffers were stored at room temperature and used within 48 hours of preparation.
(§1) 25HC3S salts were weighed in 8 mL or 4 mL glass vials with Teflon coated screw caps. Aliquots of each solvent were added to each sample and vortexed for about one minute until excess solid remained. Samples were placed on shaker at room temperature with 210 motion per minute shaking.
(§2) After one day, samples were pulled and checked if excess solid was present. About 1.5 mL aliquot of each sample was centrifuged at 12000 rpm for 12 to 15 minutes. […] Aliquots of the top clear solution of each centrifuged sample in MeOH, EtOH, IPA and ACN were diluted with diluent (water:MeOH 95:5) and assayed by HPLC. Samples of the salts in aqueous media were assayed by HPLC without dilution.
All solubility sample solutions of 25HC3S salts were determined using HPLC. A linear standard curve was constructed using standards with concentration between 11 μg/mL to 1.5 mg/mL as free acid forcing the curve to origin. Solubilities are reported as mg/mL free acid 25HC3S. Detection limit (LOD) of the HPLC method was calculated as 0.0007 mg/mL.

[2] = Final pH of the solubility sample solutions in aqueous media
Description: as §1, §2
5.1 Solubility of 25HC3S Salts in Aqueous Media

[3] = Solid-state chemical stability of 25HC3S salts at 2-8° C., 60° C. and 80° C. (HPLC assay and degradation products); details: for % Impurities, Total / % Impurities, 25-HC: ND = Not Detected; for Overall physical and chemical stability (in words): 60° C.; for % Impurities, 25-HC: 25-Hydroxy-Cholesterol
Description: (§3) Approximately 25 mg of each crystalline 25HC3S salt was added to 20 mL glass vials and each powder weight was recorded. Four vials were prepared for each salt and stored at 2-8° C. or 80° C. according to Table B2. The samples were scheduled initially to pull for testing at 3 weeks and 6 weeks' time points.
(§4) For those […] salts, the remaining vials stored at 2-8° C. for 3 weeks were allocated for storage at 60° C. for 1 week. Additional stability data was generated according to Table B3.
Based on the molecular weights, and expected UV response factors of each salt used in this study, the expected analytical sample concentrations were within the range of the 25HC3S sodium reference standards (0.75 mg/mL to 1.25 mg/mL as 25HC3S sodium salt). However, due to the lower-than-expected purity of the 25HC3S benzathine salt, an additional standard was prepared at 0.125 mg/mL as 25HC3S sodium salt.
Samples were prepared by pipetting 20 mL of 100% methanol into each vial and mixing well, with sonication and vortexing to fully dissolve the samples for HPLC analysis.
Samples were prepared by pipetting 20 mL of 100% methanol into each vial followed by two rounds of sonication for 30 minutes, with 30 seconds of vortexing before and after each round. Sample aliquots were then centrifuged at 10,000 RPM for 10 minutes and the supernatant collected for HPLC analysis.
Samples were prepared by pipetting 20 mL of 100% methanol into each vial, followed by 5 seconds of vortexing. The undissolved powder in methanol was quantitatively transferred into 200 mL volumetric flasks. The sample vials were rinsed 3 times with methanol, with each rinsate transferred to the 200 mL volumetric flasks. The volumetric flasks were filled to about 90% volume and sonicated for 10 minutes to fully dissolve the powder. The flasks were filled to volume with methanol, mixed well and aliquots collected for HPLC analysis.
HPLC analysis was performed.

[4] = Appearance (color, clumping, flowability) of stored 25HC3S salts
Description: as §3, §4
For appearance, each unopened vial was visually examined for color, clumping, and flowability.

[5] = Angle of repose of 25HC3S salts; details: listed as 25HC3S choline
Description: Angle of repose is measured as follows. Powder is poured from a funnel onto a flat surface until a cone of powder is created. The angle of repose is calculated according to the following equation: […]
Table C1, from USP<1174> Powder Flow, describes the powder flow properties correlating to the angles of repose.
The lower the angle of repose, the more flowable is a material. Powder with an angle of repose between 25° to 30° will show excellent flow through a hopper, feed frame, die table and die bore smoothly. From 41° to greater than 66°, you may experience powder flow difficulties like rat-holing or bridging within the hopper.
The angle of repose was determined by pouring approximately 2 grams of a 25HC3S salt through a 7 mm inner diameter plastic tube into the center of a 21.14 mm diameter rubber O-ring, resulting in the formation of a powder cone of fixed diameter. The height of the cone was estimated with calipers.

[6] = Overall rank order of powder flowability (angle of repose and Hausner ratio)
Text: Table C5 was generated by adding the relative rank order of the 25HC3S salts for angle of repose and Hausner ratio results, and creating an Over All Rank Order of the salts powder flowability. The salts with the lower overall rank order score had better powder flowability.

[7] = 2-8° C., 3 wk, listed as 25HC3S choline
[8] = 2-8° C., 5 wk, listed as 25HC3S choline
[9] = 80° C., 3 wk, listed as 25HC3S choline
[10] = 80° C., 5 wk, listed as 25HC3S choline
[11] = rank, lower is better flow, listed as 25HC3S choline

Solubility in 5% Dextrose ([1]; 5% dextrose, as free acid, ND = not detected, detection limit 0.7 μg/mL, 1440 min, listed as 25HC3S choline): 93 µg/mL
Solubility in FaSSGF ([1]; FaSSGF, as free acid, ND = not detected, detection limit 0.7 μg/mL, 1440 min, listed as 25HC3S choline): 8 µg/mL
Solubility in FaSSGF (in words) ([1]; FaSSGF, listed as crystalline 25HC3S choline): low solubility
Solubility in FaSSIF ([1]; FaSSIF, as free acid, 1440 min, listed as 25HC3S choline): 152 µg/mL
Solubility in FaSSIF (in words) ([1]; FaSSIF, listed as crystalline 25HC3S choline): relatively high solubility
Solubility in FeSSIF ([1]; FeSSIF, as free acid, 1440 min, listed as 25HC3S choline): 827 µg/mL
Solubility in FeSSIF (in words) ([1]; FeSSIF, listed as crystalline 25HC3S choline): relatively high solubility
Solubility in ACN ([1]; acetonitrile, as free acid, 1440 min, listed as 25HC3S choline): 500 µg/mL
Solubility in EtOH ([1]; ethanol, as free acid, ≥ = did not reach saturation, 1440 min, listed as 25HC3S choline): 3400 µg/mL
Solubility in IPA ([1]; isopropyl alcohol, as free acid, 1440 min, listed as 25HC3S choline): 600 µg/mL
Solubility in MeOH ([1]; methanol, as free acid, ≥ = did not reach saturation, 1440 min, listed as 25HC3S choline): 17500 µg/mL
Solubility in saline / 0.9% sodium chloride (in words) ([1]; saline, listed as crystalline 25HC3S choline): low solubility
Solubility in H2O ([1]; water, as free acid, ND = not detected, detection limit 0.7 μg/mL, 1440 min, listed as 25HC3S choline): 107 µg/mL
pH of the solubility sample, 0.9% Sodium Chloride ([2]; 0.9% sodium chloride (blank 5.8), listed as 25HC3S choline): 8.2
pH of the solubility sample, 5% Dextrose ([2]; 5% dextrose (blank 4.7), listed as 25HC3S choline): 7.3
pH of the solubility sample, FaSSGF ([2]; FaSSGF (blank 1.5, 1.6)): 1.6
pH of the solubility sample, FaSSIF ([2]; FaSSIF (blank 6.5, 6.5), listed as 25HC3S choline): 6.5
pH of the solubility sample, FeSSIF ([2]; FeSSIF (blank 4.9, 5.0)): 5.0
pH of the solubility sample, Water ([2]; water (blank 6.3), listed as 25HC3S choline): 8.8
Assay ([3]; 2-8° C., 3 wk, 30240 min, listed as 25HC3S choline): 101.6 % w/w
% Impurities, Total [3, 7]: 1.0%
Assay ([3]; 2-8° C., 5 wk, 50400 min, listed as 25HC3S choline): 108.1 % w/w
% Impurities, Total [3, 8]: 0.9%
Overall physical and chemical stability (in words) ([3]; 2-8° C., 80° C.): physically and chemically stable
Overall physical and chemical stability (in words) ([3]; 2-8° C., 80° C., listed as 25HC3S choline): relatively stable
% Impurities, 25-HC [3, 7]: 0.2%
% Impurities, 25-HC [3, 8]: 0.2%
% Impurities, 25-HC [3, 9]: 0.4%
% Impurities, 25-HC [3, 10]: 0.2%
Stressed stability at 80° C. (in words) ([3]; 80° C.): good, stressed stability
% Recovery ([3]; 80° C., 3 wk, vs 2-8° C., 30240 min, listed as 25HC3S choline, 30240 min): 100.8%
Assay ([3]; 80° C., 3 wk, 30240 min, listed as 25HC3S choline): 102.4 % w/w
% Impurities, Total [3, 9]: 1.2%
Assay ([3]; 80° C., 5 wk, 50400 min, listed as 25HC3S choline): 105.2 % w/w
% Impurities, Total [3, 10]: 2.2%
Stability after 5 weeks at 80° C. (in words) ([3]; solid state, 80° C., 5 weeks): stable
remaining at 840 h ([3]; solid state, 80° C., 5 wk, read-out: % Recovery, 2-8° C./5 wk vs 80° C./5 wk): 97.3%
Appearance [4, 7]: White, free flowing powder with clumping
Appearance ([4]; 2-8° C., 5 wk): White, free flowing powder with clumping
Appearance [4, 9]: White, free flowing powder with clumping
Appearance ([4]; 80° C., 5 wk): White, free flowing powder with clumping
Angle of Repose [5]: 34.9 degrees
Angle of Repose, Rounded Whole Number ([5]; rounded whole number): 35 degrees
Powder flowability, overall (in words) ([6]; angle of repose and compressibility index/Hausner ratio combined, listed as choline): next group
Angle of Repose Rank Order [6, 11]: 4
Hausner Ratio Rank Order [6, 11]: 15
Overall Rank Order (Total Score) ([6]; sum of both ranks, lower is better flow, listed as 25HC3S choline): 19
Structure (SMILES): CC(CCCC(C)(C)O)C1CCC2C3CC=C4CC(OS(=O)(=O)O)CCC4(C)C3CCC12C (stereo not drawn) [Salt #4]
Physical and chemical solid-state stability (comments) ([3]; 80° C., 5 weeks): Stable after 5 weeks at 80 °C physically and chemically.
